Measurements from US9034899B2, “Aryl, heteroaryl, and heterocycle substituted tetrahydroisoquinolines and use thereof” (Albany Molecular Research, Inc., priority 2009, dated 2015).

Legend:
DAT = assay: Occupancy assay, ex vivo binding in brain tissue, DAT
From the text: (§1) The general procedure for brain tissue collection and transporter occupancy assessment is briefly described as follows. Mice were sacrificed by asphyxiation in CO2, rats by decapitation and dogs by IV injection of euthanasia solution. For mice and rats, after the brains were removed from the skull, the forebrain tissue (removal of the brainstem and cerebellum) was used for SERT, NET, and DAT occupancy assessment. In dogs, the striatum was dissected for DAT occupancy and the remaining forebrain tissue (without the striatum, brainstem, and cerebellum) was used for SERT and NET occupancy assessment. The brain tissues were frozen in chilled isopentane and stored at −80° C. until homogenization.
(§2) The brain tissues were thawed and then homogenized using a polytron homogenizer (Kinematica). Sample aliquots were frozen immediately and stored at −80° C. Protein content was measured for each sample using a Coomassie protein assay kit (Pierce).
(§3) On the day of ex vivo binding for occupancy assessment, frozen sample aliquots were thawed and needle homogenized, and 100 μg of the tissue was incubated for SERT, NET, and DAT binding under assay conditions summarized in Table 2. […] The filters were washed twice with ice-cold incubation buffer, punched into a clear plate prior to the addition of 200 ul scintillation fluid per well. Radioligand was measured using a Wallac Microbeta liquid scintillation counter.
(§4) The specific binding was calculated by subtracting the value of the non-specific binding from that of the total binding in each sample. The percent occupancy was calculated as (1−specific binding in drug treated/specific binding in vehicle treated)×100%. […] Nonlinear regression was performed using GraphPad Prism version 3.00 (GraphPad Software, San Diego, Calif.).

hNET = hNET (Homo sapiens (Human), UniProt P23975); assay: NET radioligand binding assay ([3H]nisoxetine, HEK-293 membranes); conditions: (+)-enantiomers
Chain of hNET (P23975 whole entry): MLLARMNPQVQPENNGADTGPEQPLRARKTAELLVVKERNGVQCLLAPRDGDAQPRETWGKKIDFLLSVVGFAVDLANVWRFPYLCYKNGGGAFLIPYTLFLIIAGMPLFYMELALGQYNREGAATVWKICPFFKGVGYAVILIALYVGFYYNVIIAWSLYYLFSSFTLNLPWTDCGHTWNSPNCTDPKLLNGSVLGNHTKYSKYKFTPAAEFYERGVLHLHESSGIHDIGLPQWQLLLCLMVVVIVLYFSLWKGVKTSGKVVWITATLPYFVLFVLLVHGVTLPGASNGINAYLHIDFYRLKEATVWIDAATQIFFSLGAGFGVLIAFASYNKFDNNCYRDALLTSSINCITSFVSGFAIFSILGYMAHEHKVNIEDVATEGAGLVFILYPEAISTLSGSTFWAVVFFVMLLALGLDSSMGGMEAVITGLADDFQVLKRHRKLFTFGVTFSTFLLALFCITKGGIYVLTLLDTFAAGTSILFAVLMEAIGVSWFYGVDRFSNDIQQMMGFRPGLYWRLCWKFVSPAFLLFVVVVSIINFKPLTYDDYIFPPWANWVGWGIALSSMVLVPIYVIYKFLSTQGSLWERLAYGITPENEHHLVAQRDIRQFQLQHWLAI
Protocol: (§5) Recombinant HEK-293 cells expressing either the hSERT, hDAT, or hNET proteins were harvested from T-175 flasks as follows. The medium was removed from the flasks and the cells rinsed with HBSS without Ca and without Mg. The cells were then incubated for 5-10 minutes in 10 mM Tris-Cl, pH 7.5, 5 mM EDTA before the cells were lifted with a combination of pipetting and scraping, as needed. The cell suspension was collected into centrifuge bottles and homogenized for 30 seconds with a Polytron homogenizer. The suspension was centrifuged for 30 minutes at 32,000×g, 4° C. The supernatant was decanted and the pellet resuspended and homogenized in 50 mM Tris-Cl, pH 7.5, 1 mM EDTA for 10 seconds. The suspension was then centrifuged again for 30 minutes at 32,000×g, 4° C. The supernatant was decanted and the pellet resuspended in 50 mM Tris-Cl, pH 7.5, 1 mM EDTA and briefly homogenized. A Bradford assay (Bio-rad) was performed and the membrane preparation diluted to 2 mg/ml with 50 mM Tris-Cl, pH 7.5, 1 mM EDTA. Aliquots were prepared, and then frozen and stored at −80° C.
(§6) Compounds were dissolved in 100% DMSO at a concentration 100 times the desired highest assay concentration, serially diluted 1:3 in 100% DMSO, and 1.0 μl/well of each solution was dispensed to a Nunc polypropylene, round bottom, 384-well plate. 100% inhibition is defined with 1.0 μl/well of 10 mM desipramine dissolved in DMSO. 50 μl/well of a 2× membrane preparation (0.4 mg/ml in 50 mM Tris-Cl, pH 7.5, 120 mM NaCl, 5 mM KCl) and 50 μl/well of a 2× radioligand solution (4 nM [^3H]nisoxetine in 50 mM Tris-Cl, pH 7.5, 120 mM NaCl, 5 mM KCl) were added to the well and the reaction incubated for 1 hour at room temperature. The contents of the assay plate were then transferred to a Millipore MultiscreenHTS GF/B filter plate which was pretreated with 0.5% PEI for at least one hour. The plate was vacuum filtered and washed with 7 washes of 100 μl/well 50 mM Tris-Cl, pH 7.5, 120 mM NaCl, 5 mM KCl chilled to 4° C. The filtration and washing were completed in less than 90 seconds. The plates were air-dried overnight, 12 μl/well of MicroScint scintillation fluid added, and the plates counted in a Trilux.
(§7) The raw data was normalized to percent inhibition using control wells defining 0% (DMSO only) and 100% (selective inhibitor) inhibition which were run on each plate. Each plate was run in triplicate, and the concentration response curve thus generated was fit using the four-parameter dose response equation, Y=Bottom+(Top-Bottom)/(1+10^((LogIC50−X)*HillSlope)) in order to determine the IC50 value for each compound. The radioligand concentration chosen for each assay corresponds to the Kd concentration determined through saturation binding analysis for each assay.

NET = assay: Occupancy assay, ex vivo binding in brain tissue, NET
From the text: as §1, §2, §3, §4

hSERT = hSERT (Homo sapiens (Human), UniProt P31645); assay: SERT radioligand binding assay ([125I]RTI-55, HEK-293 membranes); conditions: (+)-enantiomers; read-out: SERT IC50
Chain of hSERT (P31645 whole entry): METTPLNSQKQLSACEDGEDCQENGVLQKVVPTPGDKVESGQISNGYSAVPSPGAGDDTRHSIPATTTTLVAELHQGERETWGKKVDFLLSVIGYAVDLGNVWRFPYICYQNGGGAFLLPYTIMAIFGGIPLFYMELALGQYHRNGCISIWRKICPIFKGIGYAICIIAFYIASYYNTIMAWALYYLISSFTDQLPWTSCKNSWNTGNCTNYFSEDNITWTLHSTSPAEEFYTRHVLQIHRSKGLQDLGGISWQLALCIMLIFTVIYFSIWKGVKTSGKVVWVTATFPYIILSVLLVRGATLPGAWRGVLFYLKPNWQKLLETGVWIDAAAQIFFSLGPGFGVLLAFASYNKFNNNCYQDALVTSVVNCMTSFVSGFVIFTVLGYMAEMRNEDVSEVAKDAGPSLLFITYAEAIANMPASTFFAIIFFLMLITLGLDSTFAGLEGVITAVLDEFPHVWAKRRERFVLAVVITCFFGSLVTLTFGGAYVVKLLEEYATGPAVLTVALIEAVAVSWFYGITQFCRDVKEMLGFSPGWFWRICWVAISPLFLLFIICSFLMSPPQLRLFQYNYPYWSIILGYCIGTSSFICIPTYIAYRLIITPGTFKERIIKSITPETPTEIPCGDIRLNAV
Protocol: as §5, with “The” for “Recombinant HEK-293 cells expressing either the hSERT, hDAT, or hNET proteins were harvested from T-175 flasks as follows. The”
as §6, with “0.4” for “1.0”, “100% inhibition is defined with 1.0 μl/well of 10 mM desipramine dissolved in DMSO. 50 μl/well of a 2× membrane preparation (0.4 mg/ml in 50 mM Tris-Cl, pH 7.5, 120 mM NaCl, 5 mM KCl) and 50 μl/well of a 2× radioligand solution (4 nM [^3H]nisoxetine in 50 mM Tris-Cl, pH 7.5, 120 mM NaCl, 5 mM KCl) were added to the well and the reaction incubated for 1 hour at room temperature.” left out
as §7, with “Each” for “The raw data was normalized to percent inhibition using control wells defining 0% (DMSO only) and 100% (selective inhibitor) inhibition which were run on each plate. Each”

SMILES: CC1(C)NCC(c2ccc(Cl)c(Cl)c2)c2ccc(-c3cccnn3)cc21 (single isomer, unassigned) [Example 9, 4-(3,4-dichlorophenyl)-1,1-dimethyl-7-(pyridazin-3-yl)-1,2,3,4-tetrahydroisoquinoline]
- DAT Occupancy % (DAT; dose 1 mg/kg, time point 1 h): 71%
- IC50 (hNET): 133 nM
- NET Occupancy % (NET; dose 1 mg/kg, time point 1 h): 20%
- IC50 (hSERT): 4.8 nM

SMILES: FC(F)Oc1ccc(-c2ccc3c(c2)CNCC3c2ccc(Cl)c(Cl)c2)nn1 (stereo not shown) [Example 12, 4-(3,4-dichlorophenyl)-7-(6-(difluoromethoxy)pyridazin-3-yl)-1,2,3,4-tetrahydroisoquinoline]
- DAT Occupancy % (DAT; dose 1 mg/kg, time point 3 h): 15%
- IC50 (hNET): 18.8 nM
- NET Occupancy % (NET; dose 1 mg/kg, time point 3 h): 46%
- IC50 (hSERT): 3.6 nM

SMILES: CC1(C)NCC(c2ccc(Cl)c(Cl)c2)c2ccc(-c3ccc(N)nn3)cc21 (stereo not shown) [Example 13, 4-(3,4-dichlorophenyl)-7-(6-aminopyridazin-3-yl)-1,1-dimethyl-1,2,3,4-tetrahydroisoquinoline]
- DAT Occupancy % (DAT; dose 3 mg/kg, time point 3 h): 53%
- IC50 (hNET): 97 nM
- NET Occupancy % (NET; dose 3 mg/kg, time point 3 h): 5%
- IC50 (hSERT): 2.3 nM

SMILES: Cc1noc(C)c1-c1ccc2c(c1)CNCC2c1ccc(Cl)c(Cl)c1 (stereo not shown) [Example 25, 4-(4-(3,4-dichlorophenyl)-1,2,3,4-tetrahydroisoquinolin-7-yl)-3,5-dimethylisoxazole]
- DAT Occupancy % (DAT; dose 1 mg/kg, time point 3 h): 0%
- IC50 (hNET): 195 nM
- NET Occupancy % (NET; dose 1 mg/kg, time point 3 h): 0%
- IC50 (hSERT): 4.9 nM

SMILES: Clc1ccc(C2CNCc3cc(-c4cccnn4)ccc32)cc1Cl (stereo not shown) [Example 33, 4-(3,4-dichlorophenyl)-7-(pyridazin-3-yl)-1,2,3,4-tetrahydroisoquinoline]
- DAT Occupancy % (DAT; dose 1 mg/kg, time point 1 h): 8%
- IC50 (hNET): 26.4 nM
- NET Occupancy % (NET; dose 1 mg/kg, time point 1 h): 3%
- IC50 (hSERT): 6.2 nM

SMILES: Nc1ccc(-c2ccc3c(c2)CNCC3c2ccc(Cl)c(Cl)c2)nn1 (stereo not shown) [Example 34, 6-(4-(3,4-dichlorophenyl)-1,2,3,4-tetrahydroisoquinolin-7-yl)pyridazin-3-amine]
- DAT Occupancy % (DAT; dose 1 mg/kg, time point 1 h): 0%
- IC50 (hNET): 22.9 nM
- NET Occupancy % (NET; dose 1 mg/kg, time point 1 h): 11%
- IC50 (hSERT): 1.8 nM

SMILES: CC1(C)NCC(c2ccc(Cl)c(Cl)c2)c2ccc(-c3ccc4ncnn4c3)cc21 (stereo not shown) [Example 40, 4-(3,4-dichlorophenyl)-7-([1,2,4]triazolo[1,5-a]pyridin-6-yl)-1,1-dimethyl-1,2,3,4-tetrahydroisoquinoline]
- DAT Occupancy % (DAT; dose 3 mg/kg, time point 3 h): 78%
- IC50 (hNET): 51 nM
- NET Occupancy % (NET; dose 3 mg/kg, time point 3 h): 1%
- IC50 (hSERT): 4.2 nM
